In brackets after ≈: the same amount, converted by molar mass. Several values for one entry are separate records, joined by “and”; a condition that tells them apart may be missing. Identical values can stand only once. Like-named read-outs stand apart in the source and are kept apart here.
What was measured:
Assay type in all cases: cell-based
Stachybotrys chartarum [1] = assay: Synergy testing of 2-way mixtures, 24 well plates; settings: S. chartarum
Method: (§1) For synergism testing of the 2-way mixtures 100 ul of each fungicide were filled into the 24 well plates (8 different rates) and 800 ul of 0.3% PDA media containing the spore suspension was added (see above). Different ratios of the 2 fungicide rates were tested at the same time.
(§2) Alternaria tenuissima, Penicillium citrinum, Stachybotrys chartarum, Aspergillus niger and Aureobasidium pullulans were separately cultivated on PDA media to […] sporulation. Spore suspensions were produced for each fungi.
(§3) For the mixtures of different fungicides the synergism was calculated based on the Colby equation, which is described below: […]
(§4) A synergistic effect exists whenever the action of the active ingredient combination of the compound of formula I and one or more compounds of formula II is greater than the sum of the actions of the active ingredients applied individually.
(§5) The fungicidal action to be expected, We, for a given combination of two fungicides can be calculated as follows (see COLBY, S. R. “Calculating synergistic and antagonistic response of herbicide combinations”. Weeds 15, pages 20-22; 1967):
(§6) If the activity actually observed is greater than the expected value We, there is a synergistic effect.
(§7) All rates below are expressed as mg ai/l (i.e. ppm).

Aureobasidium pullulans [2] = assay: Synergy testing of 2-way mixtures, 24 well plates; settings: A. pullulans
Method: as §1, §2, §3, §4, §5, §6, §7

Aspergillus niger [3] = assay: Synergy testing of 2-way mixtures, 24 well plates; settings: A. niger
Method: as §1, §2, §3, §4, §5, §6, §7

Penicillium citrinum = assay: Liquid culture assay on 24 well plates, solo ai (EC95/MIC); settings: for EC95: 24° C., 3-6 days; for MIC: Penicillium citrinum, read-out: MIC Minimal inhibition concentration
Method: (§8) The following compounds and formulations were used: […]
as §2
(§9) For solo (i.e. single) ai testing the formulated fungicide (100 ul) was filled into the 24 well plates (8 different rates: 100-0.05 mg aiA final volume as described above) and 100 ul distilled water was added. Afterwards 800 ul of 0.3% PDA media was added to the plate. The spore suspension of the specific fungi was added to this media in advance containing approx. 100.000 spores/ml. The 24 well plates were sealed and incubated at 24° C.
(§10) Dependent on the growth properties of each organisms, the evaluation was done after 3 to 6 days, when the surface of the check well was covered with mycelium. The evaluation was performed by assessing the growth of the fungi related to the check growth. The results are expressed as % activity relative to the check (values of 0-100% growth). Afterwards the results were converted in % growth inhibition. EC95 values and also MIC (minimal inhibition concentration) values were derived for each compound.
(§11) For each solo compound a graph was drawn of percentage inhibition against the concentration of the fungicide. […] Also the concentration that gave the minimum inhibition concentration was derived as the MIC value.

Alternaria tenuissima [4] = assay: as above; settings: for EC95: 24° C., 3-6 days; for MIC: Alternaria tenuissima, read-out: MIC Minimal inhibition concentration
Method: as §8, §2, §9, §10, §11

Stachybotrys chartarum [5] = assay: as above; settings: for EC95: 24° C., 3-6 days; for MIC: Stachybotrys chartarum, read-out: MIC Minimal inhibition concentration
Method: as §8, §2, §9, §10, §11

Aureobasidium pullulans [6] = assay: as above; settings: for EC95: 24° C., 3-6 days; for MIC: Aureobasidium pullulans, read-out: MIC Minimal inhibition concentration
Method: as §8, §2, §9, §10, §11

Aspergillus niger [7] = assay: as above; settings: for EC95: 24° C., 3-6 days; for MIC: Aspergillus niger, read-out: MIC Minimal inhibition concentration
Method: as §8, §2, §9, §10, §11

Alternaria tenuissima [8] = assay: Synergy testing of 2-way mixtures, 24 well plates; settings: A. tenuissima
Method: as §1, §2, §3, §4, §5, §6, §7

Mucor indicus = assay: Agar growth medium petri dish test, visual assessment of fungus-free surface; settings: after 3 days at 25° C., 'no effect' = less than 50% activity at highest dose rate of 100 mg/l
Method: (§12) A fungal growth medium was made comprising yeast extract (4 g) agar (8 g), magnesium sulphate (0.2 g), sodium nitrate (2.4 g), potassium chloride (0.2 g), potassium dihydrogen orthophosphate (0.6 g), glycerol (8 ml), distilled water (390 ml). Fungicides as set out in Tables 1 to 4 were added at levels of 5000, 100, 10, 1, 0.1 and 0.01 mg fungicide/litre of growth medium to give […] different growth medium compositions for each fungicide. These growth media containing the fungicide were each put into petri dishes.
(§13) Aspergillus versicolor, Ulocladium chartarum, Mucor indicus and Alternaria alternata were separately propagated on Luria agar to suppress sporulation and mycelial plugs were transferred upside down onto the petri dishes containing the growth medium.
(§14) A visual assessment was made of the surface of the petri dishes. The result recorded was the percentage of the surface that remained free of fungus. This was recorded as percentage activity
(§15) For each fungicide, a graph was drawn of percentage activity against concentration of to fungicide in the growth medium. From this graph, the concentrations of fungicide required to achieve 50%, 80% and 95% activity was estimated. These figures are given in the results tables.

Aspergillus versicolor = assay: as above; settings: after 19 days at 25° C.
Method: as §12, §13, §14, §15

Ulocladium chartarum = assay: as above; settings: after 13 days at 20° C., 'no effect' = less than 50% activity at highest dose rate of 100 mg/l
Method: as §12, §13, §14, §15

Alternaria alternata = assay: as above
Method: as §12, §13, §14, §15

[9] = P. citrinum, rates 0-100 mg ai/l, mean values of n = 5
[10] = A. tenuissima, rates 0-100 mg ai/l, mean values of n = 5
[11] = S. chartarum, rates 0-100 mg ai/l, mean values of n = 5
[12] = A. pullulans, rates 0-100 mg ai/l, mean values of n = 5
[13] = A. niger, rates 0-100 mg ai/l, mean values of n = 5
[14] = CCZ + FDL table, rate (PPZ) 3.1 mg ai/l
[15] = CCZ + FDL table, rate (PPZ) 1.6 mg ai/l

CC1COC(Cn2cncn2)(c2ccc(Oc3ccc(Cl)cc3)cc2Cl)O1 (stereo not shown) [Difenoconazole]
inh % (DFZ alone) (Stachybotrys chartarum [1]; DFZ 0.8 mg ai/l): 50%
inh % (DFZ alone) (Stachybotrys chartarum [1]; DFZ 1.6 mg ai/l): 90%
inh % (DFZ alone) (Aureobasidium pullulans [2]; DFZ 0.2 mg ai/l): 70%
inh % (DFZ alone) (Aureobasidium pullulans [2]; DFZ 0.8 mg ai/l): 90%
inh % (DFZ alone) (Aureobasidium pullulans [2]; DFZ 1.6 mg ai/l): 90%
inh % (DFZ alone) (Aureobasidium pullulans [2]; DFZ 3.1 mg ai/l): 70%
inh % (DFZ alone) (Aspergillus niger [3]; DFZ 0.05 mg ai/l): 0%
inh % (DFZ alone) (Aspergillus niger [3]; DFZ 0.2 mg ai/l): 0%
inh % (DFZ alone) (Aspergillus niger [3]; DFZ 0.8 mg ai/l): 10%
EC95 (Penicillium citrinum; P. citrinum): 1.7 mg ai/l
MIC (Penicillium citrinum; [9]): 1.6 µg/mL (≈ 3.94 µM)
EC95 (Alternaria tenuissima [4]; A. tenuissima): 0.7 mg ai/l
MIC (Alternaria tenuissima [4]; [10]): 0.8 µg/mL (≈ 1.97 µM)
EC95 (Stachybotrys chartarum [5]; S. chartarum): 2.7 mg ai/l
MIC (Stachybotrys chartarum [5]; [11]): 3.1 µg/mL (≈ 7.63 µM)
EC95 (Aureobasidium pullulans [6]; A. pullulans): 8 mg ai/l
MIC (Aureobasidium pullulans [6]; [12]): 12.5 µg/mL (≈ 30.8 µM)
EC95 (Aspergillus niger [7]; A. niger): 1.4 mg ai/l
MIC (Aspergillus niger [7]; [13]): 1.6 µg/mL (≈ 3.94 µM)

CCCC1COC(Cn2cncn2)(c2ccc(Cl)cc2Cl)O1 (stereo not shown) [Propiconazole]
inh % (PPZ alone) (Alternaria tenuissima [8]; PPZ 0.8 mg ai/l): 0%
inh % (PPZ alone) (Alternaria tenuissima [8]; PPZ 1.6 mg ai/l): 10%
inh % (PPZ alone) (Alternaria tenuissima [8]; PPZ 3.1 mg ai/l): 30%
inh % (PPZ alone) (Aureobasidium pullulans [2]; PPZ 3.1 mg ai/l): 70%
inh % (PPZ alone) (Aureobasidium pullulans [2]; PPZ 12.5 mg ai/l): 70%
inh % (PPZ alone) (Aspergillus niger [3]; PPZ 0.05 mg ai/l): 0%
inh % (PPZ alone) (Aspergillus niger [3]; PPZ 0.2 mg ai/l): 0%
inh % (PPZ alone) (Aspergillus niger [3]; PPZ 0.8 mg ai/l): 0%
inh % (PPZ alone) (Aspergillus niger [3]; PPZ 1.6 mg ai/l): 30%
Concentration required for 80% Activity (Mucor indicus): 61 mg/L
Concentration required for 80% Activity (Aspergillus versicolor): 9.2 mg/L
Concentration required for 80% Activity (Ulocladium chartarum): 4.2 mg/L
Concentration required for 95% Activity (Alternaria alternata): 16 mg/L
EC95 (Penicillium citrinum; P. citrinum): 1.5 mg ai/l
MIC (Penicillium citrinum; [9]): 1.6 µg/mL (≈ 4.68 µM)
EC95 (Alternaria tenuissima [4]; A. tenuissima): 10.1 mg ai/l
MIC (Alternaria tenuissima [4]; [10]): 12.5 µg/mL (≈ 36.5 µM)
EC95 (Stachybotrys chartarum [5]; S. chartarum): >100 mg ai/l
MIC (Stachybotrys chartarum [5]; [11]): > 100 µg/mL
EC95 (Aureobasidium pullulans [6]; A. pullulans): 36 mg ai/l
MIC (Aureobasidium pullulans [6]; [12]): 50 µg/mL (≈ 146 µM)
EC95 (Aspergillus niger [7]; A. niger): 3 mg ai/l
MIC (Aspergillus niger [7]; [13]): 3.1 µg/mL (≈ 9.06 µM)

c1ccc2[nH]c(-c3cscn3)nc2c1 [Thiabendazole]
Concentration required for 80% Activity (Mucor indicus): No effect
Concentration required for 80% Activity (Aspergillus versicolor): 6.9 mg/L
Concentration required for 80% Activity (Ulocladium chartarum): No effect
Concentration required for 95% Activity (Alternaria alternata): >5000 mg/L

CC(C1CC1)C(O)(Cn1cncn1)c1ccc(Cl)cc1 (stereo not shown) [Cyproconazole]
inh % (PPZ alone) (Alternaria tenuissima [8]; CCZ + FDL table, rate (PPZ) 0.8 mg ai/l): 10%
inh % (PPZ alone) (Alternaria tenuissima [8]; [14]): 30%
inh % (PPZ alone) (Aureobasidium pullulans [2]; [15]): 70%
inh % (PPZ alone) (Aspergillus niger [3]; [15]): 0%
inh % (PPZ alone) (Aspergillus niger [3]; [14]): 0%
EC95 (Penicillium citrinum; P. citrinum): 50 mg ai/l
MIC (Penicillium citrinum; [9]): 50 µg/mL (≈ 171 µM)
EC95 (Alternaria tenuissima [4]; A. tenuissima): 10.2 mg ai/l
MIC (Alternaria tenuissima [4]; [10]): 12.5 µg/mL (≈ 42.8 µM)
EC95 (Stachybotrys chartarum [5]; S. chartarum): >100 mg ai/l
MIC (Stachybotrys chartarum [5]; [11]): > 100 µg/mL
EC95 (Aureobasidium pullulans [6]; A. pullulans): 6.5 mg ai/l
MIC (Aureobasidium pullulans [6]; [12]): 12.5 µg/mL (≈ 42.8 µM)
EC95 (Aspergillus niger [7]; A. niger): 10.1 mg ai/l
MIC (Aspergillus niger [7]; [13]): 12.5 µg/mL (≈ 42.8 µM)

N#Cc1c[nH]cc1-c1cccc2c1OC(F)(F)O2 [Fludioxonil]
inh % (FDL alone) (Alternaria tenuissima [8]; FDL 0.2 mg ai/l, listed as FDL): 90% and 70%
inh % (FDL alone) (Alternaria tenuissima [8]; FDL 0.8 mg ai/l): 90%
inh % (FDL alone) (Stachybotrys chartarum [1]; FDL 0.05 mg ai/l): 10%
inh % (FDL alone) (Aureobasidium pullulans [2]; FDL 0.8 mg ai/l): 10%
inh % (FDL alone) (Aureobasidium pullulans [2]; FDL 1.6 mg ai/l, listed as FDL): 0% and 10%
inh % (FDL alone) (Aureobasidium pullulans [2]; FDL 3.1 mg ai/l, listed as FDL): 0% and 10%
inh % (FDL alone) (Aureobasidium pullulans [2]; FDL 12.5 mg ai/l, listed as FDL): 0% and 10%
inh % (FDL alone) (Aureobasidium pullulans [2]; FDL 50 mg ai/l, listed as FDL): 0% and 10%
inh % (FDL alone) (Aureobasidium pullulans [2]; FDL 100 mg ai/l, listed as FDL): 0% and 10%
inh % (FDL alone) (Aspergillus niger [3]; FDL 0.2 mg ai/l): 30%
inh % (FDL alone) (Aspergillus niger [3]; FDL 0.8 mg ai/l): 30%
inh % (FDL alone) (Aspergillus niger [3]; FDL 1.6 mg ai/l): 30%
inh % (FDL alone) (Aspergillus niger [3]; FDL 3.1 mg ai/l): 30%
inh % (FDL alone) (Aspergillus niger [3]; FDL 12.5 mg ai/l): 30%
inh % (FDL alone) (Aspergillus niger [3]; FDL 50 mg ai/l): 30%
inh % (FDL alone) (Aspergillus niger [3]; FDL 100 mg ai/l): 30%
Concentration required for 80% Activity (Mucor indicus): 2.8 mg/L
Concentration required for 80% Activity (Aspergillus versicolor): 0.81 mg/L
Concentration required for 80% Activity (Ulocladium chartarum): 0.28 mg/L
Concentration required for 95% Activity (Alternaria alternata): 0.95 mg/L
EC95 (Penicillium citrinum; P. citrinum): 0.18 mg ai/l
MIC (Penicillium citrinum): 0.2 µg/mL (≈ 0.806 µM)
EC95 (Alternaria tenuissima [4]; A. tenuissima): 1.3 mg ai/l
MIC (Alternaria tenuissima [4]): 1.6 µg/mL (≈ 6.45 µM)
EC95 (Stachybotrys chartarum [5]; S. chartarum): 0.18 mg ai/l
MIC (Stachybotrys chartarum [5]): 0.2 µg/mL (≈ 0.806 µM)
EC95 (Aureobasidium pullulans [6]; A. pullulans): >100 mg ai/l
MIC (Aureobasidium pullulans [6]): > 100 µg/mL
EC95 (Aspergillus niger [7]; A. niger): >100 mg ai/l
MIC (Aspergillus niger [7]): > 100 µg/mL
